According to patent publication US20100210562A1, “USE OF IL-1 RECEPTOR PEPTIDE, ALONE OR IN COMBINATION WITH D-ALA-GLN-OCTADECYL ESTER, AS A THERAPEUTIC AGENT” (priority 2007, published 2010):
Where no end group is shown, it is not given here.

What was measured:
[1] = system: HCMV strain AD169; assay: HCMV plaque formation assay in MRC-5 cells; conditions: for inhibition of HCMV plaque formation as compared to the virus control experiment: 10 micrograms per ml, 7-10 days
[2] = system: hepatitis B virus (HBV) ayw strain; assay: HBV experimental assay system, secreted HBV DNA by TaqMan PCR in HepG2-2.2.15; assay type: cell-based; conditions: 10 micrograms per ml; 6 days; HBV DNA in supernatant
[3] = system: Th1/Th2 cytokine production (IL-2, IL-4, IL-5, IFN-γ, TNF-α) in murine spleen cells; assay: Th1/Th2 cytokine profiling assay in ovalbumin-restimulated spleen cells; assay type: cell-based, Balb/c mice; conditions: 10 micrograms per ml; ovalbumin restimulation; 72 hours
Source text: The Balb/c mice (originated in 1923, it is a popular strain and is used in many different research disciplines. Also classified as an inbred from the production of 20 or more successive brother-sister matings, the Balb/c mouse is albino and small in size) were immunized on Days 1, 15, and 29 with Ovalbumin (Ovalbumin is the main protein found in egg white, commonly used to stimulate an immunological reaction in test animals) in PBS (5 micrograms/injection). On day 50, spleens of the mice were harvested (3 weeks after last boost with Ovalbumin). Cells were cultured (2×10^5/well in triplicate) and incubated with culture medium or test peptides—10 micrograms per ml—for 30 min. Thereafter, additional Ovalbumin was added to the cells at 10 micrograms/ml for in vitro restimulation of the cells. 72 hours later, cell supernatants were harvested and assayed using the Becton Dickinson Mouse Th1/Th2 Cytokine CBA Kit.

[4] = system: Primary Human endothelial cells (HUVEC); assay: Endothelial cell migration assay; assay type: cell-based; conditions: 10 micrograms per ml; 22 hours
Experimental: Thereafter, designated concentration of testing peptides—10 micrograms per ml—was added in duplicate wells.

[5] = system: HUVEC; assay: Endothelial tube formation assay; assay type: cell-based, human; conditions: 10 micrograms per ml; 20 hours; average tubule length
Source text: Positive control was vehicle only. […] Raw data were expressed as average tubule lenghs in pixels±standard deviation.

[6] = system: HIV-1IIIB; conditions: positive controls; MTS readout

| Compound | antiviral activity of positive control compound (HCMV) ([1]; positive control) | inhibition of HBV replication as compared to the virus control infection [2] [%] | change of the production of IL-2 in murine spleen cells [3] | change of the production of IL-4 in murine spleen cells [3] | decrease of the production of IFN-γ in murine spleen cells [3] | decrease of the production of IL-5 in murine spleen cells [3] | decrease of the production of TNF-a in murine spleen cells [3] [%] | inhibition of the migration of human endothelial cells [4] [%] | inhibition of the tube formation of human endothelial cells [5] [%] | inhibition of HCMV plaque formation as compared to the virus control experiment [1] | increase of the migration of endothelial cells [4] [%] | antiviral activity of positive control compounds (HIV-1) [6] |
| --- | --- | --- | --- | --- | --- | --- | --- | --- | --- | --- | --- | --- |
| Nc1nc(O)c2ncn(COC(CO)CO)c2n1 [Ganciclovir, reference compound] | expected levels of antiviral activity | – | – | – | – | – | – | – | – | – | – | – |
| Lys-Ile-Cys-Ile-Arg-Ile-Gln-Ile-Ser-OH (KICIRIQIS-OH) [Peptide 1] | – | 41.0 | did not significantly change | did not significantly change | did not significantly change | did not significantly change | 97 | 32 | 12 | did not inhibit | – | – |
| D-Ala-Gln-octadecyl ester [Peptide 2] | – | 66.0 | did not significantly change | did not significantly change | 98.1% | 74.2% | 71.3 | – | 10 | 2.9% | 2 | – |
| CC(C)(C)NC(=O)[C@@H]1CN(Cc2cccnc2)CCN1C[C@@H](O)C[C@@H](Cc1ccccc1)C(=O)N[C@H]1c2ccccc2C[C@H]1O [indinavir] | – | – | – | – | – | – | – | – | – | – | – | expected levels of antiviral activity |
| Cc1cn([C@H]2C[C@H](N=[N+]=[N-])[C@@H](CO)O2)c(=O)[nH]c1=O [AZT] | – | – | – | – | – | – | – | – | – | – | – | expected levels of antiviral activity |
